Test results as given in publication PMC3648489, “The sodium glucose cotransporter 2 inhibitor empagliflozin does not prolong QT interval in a thorough QT (TQT) study” (Cardiovascular Diabetology, 2013).
Several values for one entry are separate records, joined by “and”; a condition that tells them apart may be missing. Equal entries are not always repeated. Where two headings read alike, the source gives them in different places.

Assays:
healthy volunteers [1] = assay: Thorough QT study: triplicate 12-lead ECG, QTcN and heart rate change from baseline; type: in vivo, human; details: for Difference from placebo in mean QTcN change from baseline, mean (SE): 1−4 hours after dosing; for Placebo-corrected MCfB in QTcN from all ECGs (90% CI): 0.5-24 hours after dosing; for Maximum upper CI of placebo-corrected QTcN change from baseline over the time course: 90% CI; for Range of adjusted means of placebo-corrected QTcN change from baseline over the time course: time points 0.5-24 hours
Procedure: This thorough QT study (TQT) was a randomised, double-blind (moxifloxacin open), placebo-controlled crossover trial which included the following treatments: 25 mg and 200 mg empagliflozin (Boehringer Ingelheim Pharma GmbH & Co. KG); 400 mg open-label moxifloxacin (Avalox®; Bayer Vital, Leverkusen, Germany); and two placebo periods, with a washout of at least seven days between treatments. Trial medication was administered in the morning after an overnight fast.
ECG recordings were made at screening and at the end of the study as part of the safety evaluation. For the QTc evaluation, ECG recordings were made on study drug administration days (as ECG profiles) at 60, 50 and 40 minutes pre-dose (to derive the period-specific baseline), and at 0.5, 1, 1.5, 2, 2.5, 3, 4, 6, 8, 12 and 24 hours post-dose (last three time points omitted for moxifloxacin treatment). At each time point, triplicate standard 12-lead ECGs (I, II, III, aVR, aVL, aVF, V1–V6) of 10 seconds’ duration each were recorded after at least 5 minutes’ rest in the supine position using CardioSoft ECG recording machines (GE Healthcare, Freiburg, Germany). ECGs were sent to a central laboratory for evaluation of PR, QRS, RR and QT intervals. The semi-automatic approach used for determination of the fiducial points provided an automatic pre-assessment using a computer algorithm, which was reviewed by a specialist and adjusted if necessary. This review was performed blinded with regard to treatment and time point.
Data from four cardiac cycles per ECG were averaged. A population heart rate-corrected QT interval (QTcN) was derived by determining the exponent δ of the relationship: QT ~ (1000 / RR)^δ (where δ is the regression effect of the covariate) using a linear mixed model on log-transformed RR and QT data (measured in ms). Data from triplicate ECGs were then averaged for each time point.
The primary endpoint was the mean change from baseline (MCfB) in QTcN which was the mean QTcN derived from ECGs obtained 1–4 hours post-dose minus mean QTcN from baseline ECGs obtained pre-dose at each visit. Plasma concentrations of both empagliflozin and moxifloxacin were expected to reach peak levels within this three-hour window, ensuring the most relevant levels of drug exposure.
(§1) Secondary endpoints were the changes from period baseline in QTcN at any time point between 0.5–24 hours after dosing. In addition, the MCfB 2–4 hours after dosing (for assessment of the moxifloxacin effect), and the MCfB of all ECGs taken 0.5–24 hours after dosing were evaluated. Safety and tolerability were evaluated based on physical examination, vital signs, ECG, clinical laboratory tests, adverse events (AEs) and the physician’s assessment of global tolerability.
Briefly, the primary analysis compared changes in the primary endpoint (QTcN MCfB over 1–4 hours) using an analysis of covariance (ANCOVA) model with ‘sequence’, ‘period’ and ‘treatment’ as fixed effects, ‘subjects nested within sequences’ as a random effect, and ‘pre-dose baseline’ as a covariate. Analyses were performed using pair-wise comparisons of the trial treatments. The saturated repeated measurements crossover (RMC) model with unstructured covariance using pair-wise comparisons of the trial treatments was used to evaluate changes from baseline in QTcN at any time point between 0.5–24 hours after dosing. […] For descriptive statistics and the exposure-response analysis, the changes from baseline in QTcN of the placebo periods were averaged prior to the derivation of the placebo corrected MCfB.
In agreement with ICH E14, all tests were performed one-sided against the threshold level of regulatory concern of 10 ms with type-I error of α=5%, which is statistically equivalent to the calculation of two-sided 90% confidence intervals for the adjusted mean estimates. […]

[2] = Empagliflozin plasma pharmacokinetics (HPLC-MS/MS) in the TQT study; type: in vivo, human; details: for Tmax / AUC(0-t) / Cmax: human; for Tmax: po, read-out: tmax, median; for AUC(0-t): read-out: AUC0−tz, gMean; for Cmax: read-out: Cmax, gMean
Procedure: Blood samples for pharmacokinetic measurements were taken one hour before drug administration and at the same post-dose time points as ECG measurements, except for the moxifloxacin periods. Empagliflozin concentrations in plasma were determined using a validated high performance liquid chromatography, tandem mass spectrometry (HPLC-MS/MS) assay with a lower limit of quantification of 1.11 nmol/L (0.5 ng/mL). Results were calculated using peak area ratios and calibration curves were created using weighted (1/x2) quadratic regression. […] Pharmacokinetic parameters included Cmax, tmax which were determined directly from the plasma concentration-time profiles of each, and area under the plasma concentration curve from zero to the last quantifiable time point (AUC0–tz), calculated using the linear trapezoidal method for ascending concentrations and the log trapezoidal method for descending concentrations. Pharmacokinetic parameters were determined using WinNonlin™ software v5.2 (Pharsight Corporation, Mountain View, California, USA).

healthy volunteers [3] = assay: Safety and tolerability (adverse events) in the TQT study; type: in vivo, human
Procedure: as §1
Categorical endpoints such as AEs, cardiologic assessments and occurrence of ECG intervals beyond thresholds of regulatory concern (e.g. QTc >450 ms) were analysed based on incidence rates adjusted for the number of periods in which the treatment was given. Additionally, the analysis of such events in periods with any of the two doses of empagliflozin compared with the two placebo periods provides a direct comparison of incidence rates. All analyses were performed on the “full analysis set”, which comprised all recorded data of all subjects who received at least one dose of study treatment and had at least one ECG endpoint assessment at baseline and post treatment. No imputation for missing data was planned or performed.

[4] = Earlier single-dose pharmacokinetic study of empagliflozin in healthy volunteers; type: in vivo, human; details: 200 mg versus 25 mg; based on ref 10
[5] = system: human ether-a-go-go related gene (hERG)-mediated potassium current; set-up: method as in unpublished data; details: transfected HEK293 cells; ref unpublished data; cited from earlier work
[6] = system: guinea pig papillary muscle; set-up: method as in unpublished data; details: empagliflozin doses of ≥10 μM (so in the source); ref unpublished data; cited from earlier work
[7] = set-up: method as in PMID 27121669; details: cited from earlier work; for Cmax: read-out: Expected mean Cmax
healthy volunteers [8] = system: healthy volunteers; set-up: method as in PMID 19238652, PMID 15165918, PMID 15903123, PMID 11180026; details: moxifloxacin 400 mg; cited from earlier work
[9] = empagliflozin 25 mg, 1-4 hours after administration
[10] = empagliflozin 200 mg, 1-4 hours after administration
[11] = empagliflozin 25 mg single oral dose, plasma, n=28
[12] = empagliflozin 200 mg single oral dose, plasma, n=30
[13] = single oral dose of 25 mg, healthy volunteers
[14] = moxifloxacin 400 mg, 2-4 hours after administration

OC[C@H]1O[C@@H](c2ccc(Cl)c(Cc3ccc(O[C@H]4CCOC4)cc3)c2)[C@H](O)[C@@H](O)[C@@H]1O [Empagliflozin, empagliflozin]
Difference from placebo in mean QTcN change from baseline, mean (SE) (healthy volunteers [1]; 25 mg empagliflozin, primary analysis model with placebo period 1 only): 0.2 (0.9) ms
Difference from placebo in mean QTcN change from baseline, mean (SE) (healthy volunteers [1]; 25 mg empagliflozin, primary analysis model with placebo period 2 only): 0.6 (1.0) ms
Difference from placebo in mean QTcN change from baseline, mean (SE) (healthy volunteers [1]; 200 mg empagliflozin, primary analysis model with placebo period 1 only): -0.5 (0.8) ms
Difference from placebo in mean QTcN change from baseline, mean (SE) (healthy volunteers [1]; 200 mg empagliflozin, primary analysis model with placebo period 2 only): 0.1 (0.8) ms
Slope estimates of exposure-response relationship between empagliflozin and heart rate (healthy volunteers [1]; both doses (25 mg and 200 mg), CIs include zero): slope estimates close to zero
Range of adjusted means of placebo-corrected heart rate change from baseline over the time course (healthy volunteers [1]; both empagliflozin doses (25 mg and 200 mg)): -1.2 to 1.5 bpm
90% CIs of placebo-corrected heart rate change from baseline over the time course (healthy volunteers [1]; both empagliflozin doses (25 mg and 200 mg), all CIs within): -3 to 3 bpm
Intercept of exposure-response analysis of placebo-corrected QTcN change from baseline (healthy volunteers [1]; empagliflozin 25 mg): 0.35 ms
Slope (estimate) of exposure-response analysis of placebo-corrected QTcN change from baseline (healthy volunteers [1]; empagliflozin 25 mg): -0.0007 ms/(nmol/L)
QTcN mean change from baseline: ΔQTcN, adjusted mean (SE) (healthy volunteers [1]; empagliflozin 25 mg single oral dose, 1-4 hours after administration, n=28): 4.3 (1.1) ms
Placebo-corrected MCfB in QTcN from all ECGs (90% CI) (healthy volunteers [1]; empagliflozin 25 mg): 0.7 (90% CI: -0.4, 1.7) ms
Volunteers exceeding the QTcN threshold of 450 ms (healthy volunteers [1]; empagliflozin 25 mg, 0.5-24 hours post-dose, one volunteer): 3.6%
Difference from placebo: ΔΔHR, adjusted mean (SE) (healthy volunteers [1]; [9]): -0.9 (0.5) bpm
HR mean change from baseline: ΔHR, adjusted mean (SE) (healthy volunteers [1]; [9]): -1.2 (0.5) bpm
Difference from placebo: ΔΔQTcN (placebo-corrected MCfB in QTcN), adjusted mean (healthy volunteers [1]; empagliflozin 25 mg, 1-4 hours after dosing, both placebo periods): 0.6 (0.8) ms
Difference from placebo: ΔΔQTcN (placebo-corrected MCfB in QTcN), adjusted mean (healthy volunteers [1]; empagliflozin 25 mg, 1-4 hours after dosing, both placebo periods, listed as empagliflozin): 0.6 (90% CI: -0.7, 1.9) ms and 0.6 (90% confidence interval [CI]: -0.7, 1.9) ms
Maximum upper CI of placebo-corrected QTcN change from baseline over the time course (healthy volunteers [1]; empagliflozin 25 mg): 4.7 ms
Predicted value of placebo-corrected change from baseline QTcN at gMean of Cmax, estimate (healthy volunteers [1]; empagliflozin 25 mg, at gMean Cmax 768 nmol/L): -0.20 ms
Range of adjusted means of placebo-corrected QTcN change from baseline over the time course (healthy volunteers [1]; empagliflozin 25 mg): -2.7 to 2.2 ms
Intercept of exposure-response analysis of placebo-corrected QTcN change from baseline (healthy volunteers [1]; empagliflozin 200 mg): -0.60 ms
Slope (estimate) of exposure-response analysis of placebo-corrected QTcN change from baseline (healthy volunteers [1]; empagliflozin 200 mg): -0.0000 ms/(nmol/L)
QTcN mean change from baseline: ΔQTcN, adjusted mean (SE) (healthy volunteers [1]; empagliflozin 200 mg single oral dose, 1-4 hours after administration, n=30): 3.4 (0.9) ms
Placebo-corrected MCfB in QTcN from all ECGs (90% CI) (healthy volunteers [1]; empagliflozin 200 mg): -0.2 (-1.2, 0.9) ms
Volunteers exceeding the QTcN threshold of 450 ms (healthy volunteers [1]; empagliflozin 200 mg, 0.5-24 hours post-dose, two volunteers): 6.7%
Difference from placebo: ΔΔHR, adjusted mean (SE) (healthy volunteers [1]; [10]): 0.0 (0.5) bpm
HR mean change from baseline: ΔHR, adjusted mean (SE) (healthy volunteers [1]; [10]): -0.3 (0.5) bpm
Difference from placebo: ΔΔQTcN (placebo-corrected MCfB in QTcN), adjusted mean (healthy volunteers [1]; empagliflozin 200 mg, 1-4 hours after dosing, both placebo periods): -0.2 (0.7) ms
Difference from placebo: ΔΔQTcN (placebo-corrected MCfB in QTcN), adjusted mean (healthy volunteers [1]; empagliflozin 200 mg, 1-4 hours after dosing, both placebo periods, listed as empagliflozin): -0.2 (-1.4, 0.9) ms
Maximum upper CI of placebo-corrected QTcN change from baseline over the time course (healthy volunteers [1]; empagliflozin 200 mg): 3.5 ms
Predicted value of placebo-corrected change from baseline QTcN at gMean of Cmax, estimate (healthy volunteers [1]; empagliflozin 200 mg, at gMean Cmax 4860 nmol/L): -0.64 ms
Range of adjusted means of placebo-corrected QTcN change from baseline over the time course (healthy volunteers [1]; empagliflozin 200 mg): -1.8 to 1.6 ms
Dose proportionality of empagliflozin exposure ([2]; 25 mg and 200 mg single doses): increased approximately dose proportionally
tmax, median [2, 11]: 1.5 h
Tmax ([2]; plasma, 25 mg, empagliflozin 25 mg single oral dose, plasma, n=28): ~1.5 h
Tmax ([2]; plasma, 200 mg, empagliflozin 200 mg single oral dose, plasma, n=30): ~1.8 h
AUC(0-t) [2, 11]: 4.86 µM·h
Cmax [2, 11]: 768 nM
AUC(0-t) [2, 12]: 36.4 µM·h
Cmax [2, 12]: 4860 nM
Volunteers experiencing AEs (healthy volunteers [3]; human, in vivo): 23.3%
Cmax ratio supratherapeutic dose versus therapeutic dose [4]: ~ 7 fold
Interaction with hERG-mediated potassium current [5]: No relevant interactions
Effect on action potential configuration or contractile function [6]: no effect on action potentials
Effect of food on drug exposure [7]: no clinically relevant effects of food on drug exposure
Terminal elimination half-life ([7]; doses ≥10 mg): 10 to 13 h
Time to peak levels ([7]; single doses of empagliflozin (≥800 mg as printed)): 1.5 to 2.5 h
Mean tmax [7, 13]: 2.2 h
Cmax [7, 13]: 505 nM
Cmax ([7]; single oral dose of 200 mg, healthy volunteers): 3490 nM

COc1c(N2C[C@@H]3CCCN[C@@H]3C2)c(F)cc2c(=O)c(C(=O)O)cn(C3CC3)c12 [Moxifloxacin, moxifloxacin, reference compound]
Number of volunteers with a change in QTcN more than 30 ms (healthy volunteers [1]; moxifloxacin 400 mg): Five
QTcN mean change from baseline: ΔQTcN, adjusted mean (SE) (healthy volunteers [1]; moxifloxacin 400 mg single dose, open-label, 2-4 hours after administration, n=29): 16.0 (1.2) ms
Volunteers exceeding the QTcN threshold of 450 ms (healthy volunteers [1]; moxifloxacin 400 mg, 0.5-6 hours post-dose, two volunteers): 6.9%
Difference from placebo: ΔΔHR, adjusted mean (SE) (healthy volunteers [1]; [14]): 2.2 (0.6) bpm
HR mean change from baseline: ΔHR, adjusted mean (SE) (healthy volunteers [1]; [14]): 2.0 (0.6) bpm
Difference from placebo: ΔΔQTcN (placebo-corrected MCfB in QTcN), adjusted mean (healthy volunteers [1]; moxifloxacin 400 mg, 2-4 hours post-dose, assay sensitivity): 12.4 (1.0) ms
Difference from placebo: ΔΔQTcN (placebo-corrected MCfB in QTcN), adjusted mean (healthy volunteers [1]; moxifloxacin 400 mg, 2-4 hours post-dose, assay sensitivity, listed as moxifloxacin): 12.4 (10.7, 14.1) ms
Serious AE leading to study discontinuation (healthy volunteers [3]; moxifloxacin, one participant, not considered related to study medication): fatal car accident
Prolongation of heart rate-corrected QT interval compared to placebo (healthy volunteers [8]): 6 to 15 ms
